In patent US20030236302A1, “Synthetic derivatives” (priority 2002, published 2003) one finds IC50 and CC50 data, which are given here for 21 molecules.

Data set [1] relates to Human IL-12 p70 (heterodimer). Kind of data set: IL-12 production in IFN-primed, SAC-stimulated THP-1 cells (ELISA). The format is cell-based. Conditions: THP-1 cells primed by IFNα (100 U/mL) 22 h, stimulated with 0.025% SAC, supernatants after 24 h. How it is done:
(§1) Human monocytic THP-1 cells were primed by IFNα (100 U/mL) for 22 h and then stimulated with 0.025% SAC in the presence of different concentrations of a test compound. The test compounds were prepared in DMSO and the final DMSO concentration was adjusted to 0.25% in all cell cultures, including the compound-free control. Supernatants from the cultures were removed after 24 h, and assayed for productions of IL-12 and […]. Cell viability was assessed using the bioreduction of MTS [3-(4,5-dimethylthiazol-2-yl)-5-(3-carboxymethoxyphenyl)-2-(4-sulfophenyl)-2H-tetrazolium] (Promega, Madison, Wis.), with cell survival estimated as the ratio of the absorbance in compound-treated groups versus compound-free control. Human IL-12 p70 (heterodimer) and TNFα were assayed using ELISA kit from Endogen (Cambridge, Mass.), according to the manufacturer's instructions.

The next data set concerns TNFα. Briefly: TNFα production in IFN-primed, SAC-stimulated THP-1 cells (ELISA). The format is cell-based, Human. Conditions: THP-1 cells primed by IFNα (100 U/mL) 22 h, stimulated with 0.025% SAC, supernatants after 24 h. As for the experimental part:
as §1

Data set [2] can be described thus: Cell viability by MTS bioreduction. The format is cell-based, Human. Conditions: human, THP-1 monocytic cells (IFNα-primed, SAC-stimulated), THP-1 cells, survival vs compound-free control, read-out: CC50 (μM) Cell Toxicity. How it is done:
as §1

Data set [3] relates to Human monocytic THP-1 cells. Briefly: Cell viability by MTS bioreduction. The format is cell-based. Conditions: survival vs compound-free control, read-out: CC50 (μM) Cell Toxicity. How it is done: as §1

Consider `O=C1C=CC[C@H](CCc2ccccc2)O1` [Compound 10, (S)-6-Phenethyl-5,6-dihydro-pyran-2-one], for which the half-inhibitory concentration (IC50) in data set [1] (Homo sapiens) is 10 µM; with TNFα (Homo sapiens), 13 µM. Moreover, the CC50 at 24 h in data set [2] was found to be 100 µM.
`O=C1C=C(O)CC(/C=C/c2cccnc2)O1` (stereo not shown) [Compound 5, 6-(2-pyridin-3-yl-vinyl)-dihydro-pyran-2,4-one]: the IC50 came out at 80 µM in data set [1] (Homo sapiens) and 100 µM in the data set with TNFα (Homo sapiens). The CC50 at 24 h in data set [2] is greater than 100 µM.
As for `O=C1CC(=O)O[C@@H](CCc2ccccc2F)C1` [Compound 3, (S)-6-[2-(2-fluoro-phenyl)-ethyl]-dihydro-pyran-2,4-dione], the IC50 in data set [1] (Homo sapiens) was 70 µM; with TNFα (Homo sapiens), 40 µM.
For `COC1=CC(=O)OC(CCc2ccc[nH]2)C1` (stereo not shown) [Compound 6, 4-Methoxy-6-[2-(1H-pyrrol-2-yl)-ethyl]-5,6-dihydro-pyran-2-one], the IC50 turned out to be 70 µM in data set [1] (Homo sapiens) and 100 µM in the data set with TNFα (Homo sapiens). Further, the CC50 at 24 h in data set [2] was greater than 100 µM.
With `COC1=CC(=O)O[C@@H](CCc2ccc(F)cc2)C1` [Compound 9, (S)-6-[2-(4-Fluoro-phenyl)-ethyl]-4-methoxy-5,6-dihydro-pyran-2-one], the IC50 was found to be 86 µM in data set [1] (Homo sapiens) and 100 µM in the data set on TNFα (Homo sapiens). Also, the CC50 at 24 h in data set [2] is greater than 100 µM.
For `O=C1CC(=O)O[C@@H](CCc2cccc(F)c2)C1` [Compound 4, (S)-6-[2-(3-Fluoro-phenyl)-ethyl]-dihydro-pyran-2,4-dione], the IC50 in data set [1] (Homo sapiens) came to 40 µM; in the data set with TNFα (Homo sapiens), 20 µM. In data set [2], the CC50 at 24 h is greater than 100 µM.
Consider `COC1=CC(=O)OC(CCc2ccc(F)c(F)c2)C1` (stereo not shown) [Compound 17, 6-[2-(3,4-difluoro-phenyl)-ethyl]-4-methoxy-5,6-dihydro-pyan-2-one], for which the IC50 (in data set [1]; with TNFα) was 80 µM in each case. Moreover, the CC50 in data set [3] is greater than 100 µM.
On to `COC1=CC(=O)O[C@@H](CCc2ccccc2F)C1` [Compound 7, (S)-6-[2-(2-Fluoro-phenyl)-ethyl]-4-methoxy-5,6-dihydro-pyran-2-one], for which the IC50 in data set [1] (Homo sapiens) is 38 µM; in the data set on TNFα (Homo sapiens), 62 µM. In addition, the CC50 at 24 h in data set [2] was greater than 100 µM.
For `COC1=CC(=O)O[C@@H](CCc2cccnc2)C1` [Compound 21, 4-Methoxy-6-(2-pyridin-3-yl-ethyl)-5,6-dihydro-pyran-2-one], the IC50 in data set [1] (Homo sapiens) came to 100 µM; with TNFα (Homo sapiens), 80 µM. For the same molecule, the CC50 at 24 h in data set [2] was greater than 100 µM.
In the case of `COC1=CC(=O)OC(/C=C/c2ccc(F)c(F)c2)C1` (stereo not shown) [Compound 14, 6-[2-(3,4-difluoro-phenyl)-vinyl]-4-methoxy-5,6-dihydro-pyan-2-one], the IC50 (in data set [1] (Homo sapiens); with TNFα (Homo sapiens)) was 70 µM in each case. Moreover, the CC50 at 24 h in data set [2] was greater than 100 µM.
On to `COC1=CC(=O)O[C@@H](CCc2cccc(F)c2)C1` [Compound 8, (S)-6-[2-(3-Fluoro-phenyl)-ethyl]-4-methoxy-5,6-dihydro-pyran-2-one], for which the figures for the IC50 (in data set [1] (Homo sapiens); in the data set on TNFα (Homo sapiens)) were 65 µM and 70 µM, respectively. In data set [2], the CC50 at 24 h was greater than 100 µM.
Molecule `COC1=CC(=O)OC(C=Cc2ccc(C#N)cc2)C1` (stereo not shown) [Compound 13, 6-[2-(4-cyano-phenyl)-vinyl]-4-methoxy-5,6-dihydro-pyan-2-one] yielded an IC50 in data set [1] of 80 µM. The CC50 in data set [3] is greater than 100 µM.
Take `COC1=CC(=O)OC(/C=C/c2ccc(F)c(F)c2F)C1` (stereo not shown) [Compound 15]: the IC50 in data set [1] (Homo sapiens) worked out at 90 µM; in the data set with TNFα (Homo sapiens) it was 60 µM. In addition, the CC50 at 24 h in data set [2] is greater than 100 µM.
In the case of `O=C1C=CC[C@H](CCc2cccc(F)c2)O1` [Compound 11, S-6-[2-(3-Fluoro-phenyl)-ethyl]-5,6-dihydro-pyran-2-one], the figures for the IC50 (in data set [1] (Homo sapiens); in the data set with TNFα (Homo sapiens)) were 10 µM and 5 µM, respectively. In addition, the CC50 at 24 h in data set [2] worked out at 100 µM.
As to `COC1=CC(=O)OC(CCc2ccc(F)cc2)C1` (stereo not shown) [Compound 18, 6-[2-(4-fluoro-phenyl)-ethyl]-4-methoxy-5,6-dihydro-pyan-2-one], the IC50 in data set [1] is 80 µM; in the data set on TNFα, 70 µM. Moreover, the CC50 in data set [3] was greater than 100 µM.
For `CC(C)OC1=CC(=O)O[C@@H](CCc2ccccc2)C1` [Compound 19, S-(+)-4-isopropoxy-6-phenethyl-5,6-dihydro-pyran-2-one], the IC50 (in data set [1] (Homo sapiens); in the data set on TNFα (Homo sapiens)) was 70 µM each time. The cytotoxic concentration (CC50) at 24 h in data set [2] was greater than 100 µM.
For the molecule `COc1cc(CC[C@H]2CC=CC(=O)O2)cc(OC)c1OC` [Compound 12, S-6-[2-(3,4,5-trimethoxylphenyl)-ethyl]-5,6-dihydro-pyran-2-one], the IC50 was determined as 10 µM in data set [1] (Homo sapiens) and 25 µM in the data set on TNFα (Homo sapiens). In data set [2], the CC50 at 24 h stood at 100 µM.
For `CCOC1=CC(=O)O[C@@H](CCc2ccccc2)C1` [Compound 20, (S)-4-Ethoxy-6-phenethyl-5,6-dihydro-pyran-2-one], the IC50 in data set [1] (Homo sapiens) was found to be 80 µM; in the data set on TNFα (Homo sapiens), 100 µM. For the same molecule, the CC50 at 24 h in data set [2] was greater than 100 µM.
On to `COC(=O)c1ccc(CCC2CC(OC)=CC(=O)O2)cc1` (stereo not shown) [Compound 16, 4-[2-(4-methoxy-6-oxo-3,6-dihydro-2H-pyran-2-yl)-ethyl]-benzoic acid methyl ester], for which the IC50 (in data set [1] (Homo sapiens); with TNFα (Homo sapiens)) was 80 µM in each case. Moreover, the CC50 at 24 h in data set [2] was greater than 100 µM.
On to `O=C1CC(=O)O[C@@H](CCc2ccc(F)cc2)C1` [Compound 2, 6-[2-(4-Fluoro-phenyl)-ethyl]-dihydro-pyran-2,4-dione], for which the IC50 (in data set [1] (Homo sapiens); in the data set on TNFα (Homo sapiens)) was 30 µM in each case. The CC50 at 24 h in data set [2] was greater than 100 µM.
On to `O=C1CC(=O)O[C@@H](CCc2ccccc2)C1` [Compound 1, S-(+)-6-Phenethyl-dihydro-pyran-2,4-dione], for which the values for the concentration for half-maximal inhibition (IC50) (in data set [1] (Homo sapiens); in the data set with TNFα (Homo sapiens)) were 30 µM and 40 µM, respectively. Also, in data set [2], the CC50 at 24 h was greater than 100 µM.
